# Results taken from US6391907B1, “Indoline derivatives” (American Home Products Corporation, priority 1999, dated 2002).
# “And” between values parts separate entries of the source, which are not always exact repeats. Identical values can stand only once.
# System: not given
# Test: not given
# Conditions: not given
row,SMILES,melting point
1,"CCC1(CC)C(=O)Nc2ccc(-c3cccc(Cl)c3)cc21 [Example 7, 5-(3-Chloro-phenyl)-3,3-diethyl-1,3-dihydro-indol-2-one]",195 to 197 °C
2,"O=C1Nc2ccc(-c3ccc(F)c(Cl)c3)cc2C12CCCCC2 [Example 20, 5′-(3Chloro-4-fluorophenyl)spiro[cyclohexane-1,3′-[3H]indol]-2′(1′H)-one]",188 to 189 °C
3,"CC#CC1(OC)C(=O)Nc2ccc(-c3cccc(Cl)c3)cc21 (stereo not drawn) [Example 9, 5-(3-Chloro-phenyl)-3-methoxy-3-prop-1-ynyl-1,3-dihydro-indol-2-one]",> 190 °C (dec.)
4,"CC1(C)C(=O)Nc2ccc(-c3cccc(Cl)c3)cc21 [Example 4, 5-(3-Chloro-phenyl)-3,3-dimethyl-1,3dihydro-indol-2-one]",188 to 189 °C
5,"N#Cc1csc(-c2ccc3c(c2)C2(CCCCC2)C(=O)N3)c1 [Example 38, 5-(1′,2′-Dihydro-2′-oxospiro[cyclohexane-1,3′-[3H]indol]-5′-yl)-thiophene-3-carbonitrile]",188 to 190 °C
6,"O=C1Cc2cc(-c3cccc(Cl)c3)ccc2N1 [Example 10, 5-(3-Chloro-phenyl)-1,3-dihydro-indol-2-one]",169 to 171 °C
7,N#Cc1cc(-c2ccc3c(c2)C2(CCCC2)C(=O)N3)ccc1F,264 to 266 °C
8,"Cn1c(-c2ccc3c(c2)C2(CCCCC2)C(=O)N3)ccc1[N+](=O)[O-] [Example 45, 5′-(5-Nitro-1-methyl-pyrrol-2-yl)spiro[cyclohexane-1,3′-[3H]indol]-2′(1′H)-one]",210 °C
9,"N#Cc1coc(-c2ccc3c(c2)C2(CCCCC2)C(=O)N3)c1 [Example 40, 5-(1′,2′-Dihydro-2′-oxospiro[cyclohexane-1,3′-[3H]indol]-5′-yl)-3-furancarbonitrile]",243 to 245 °C
10,"O=C1Nc2ccc(-c3cccc(Cl)c3)cc2C12OCCCO2 [Example 12, 5′-(3-Chlorophenyl)spiro[1,3-dioxane-2,3-[3H]indol]-2′(1′H)-one]",242 to 244 °C
11,"O=C1Nc2ccc(-c3cccc(Cl)c3)cc2C12OCCO2 [Example 11, 5′-(3-Chlorophenyl)spiro[1,3-dioxolane-2,3′-[3H]indol]-2′(1′H)-one]",159 to 161 °C
12,"O=C1Nc2ccc(-c3cccc(F)c3)cc2C12CCCCC2 [Example 21, 5′-(3-Fluorophenyl)spiro[cyclohexane-1,3′-[3H]indol]-2′(1′H)-one]",171 to 172 °C
13,"O=C1Nc2ccc(-c3cccc([N+](=O)[O-])c3)cc2C12CCCCC2 [Example 30, 5′-(3-Nitrophenyl)spiro[cyclohexane-1,3′-[3H]indol]-2′(1′H)-one]",196 to 198 °C
14,"CCC1C(=O)Nc2ccc(-c3cccc(Cl)c3)cc21 (stereo not drawn) [Example 6, 5-(3-Chloro-phenyl)-3-ethyl-1,3dihydro-indol-2-one]",118 to 120 °C
15,"O=C1Nc2ccc(-c3cccc([N+](=O)[O-])c3)cc2C12CCCC2 [Example 13, 5′-(3-nitrophenyl)spiro[cyclopentane-1,3′-[3H]indol]2′(1′H)-one]",238 to 240 °C
16,"O=C1Nc2ccc(-c3cc(F)cc(F)c3)cc2C12CCCCC2 [Example 22, 5′-(3,5-Difluorophenyl)spiro[cyclohexane1,3′-[3H]indol]-2′(1′H)-one]",180 to 183 °C
17,"O=C1Cc2cc(-c3cccc([N+](=O)[O-])c3)ccc2N1 [Example 1, 5-(3-Nitro-phenyl)-1,3-dihydro-indol-2-one]",269 °C
18,"O=C1Nc2ccc(-c3cc(F)cc(Cl)c3)cc2C12CCCCC2 [Example 27, 5′-(3-Chloro-5-fluorophenyl)spiro[cyclohexane-1,3′-[3H]indol]-2′(1′H)-one]",178 to 180 °C

# Further lines, results first:
row,melting point,SMILES
1,206.5 to 207.8 °C,"CC1(C)C(=O)Nc2ccc(-c3ccc(F)c(Cl)c3)cc21 [Example 66, 5-(3-Chloro-4-fluoro-phenyl)-3,3-dimethyl1,3-dihydro-indol-2-one]"
2,199.6 to 201.4 °C,"CC1(C)C(=O)Nc2ccc(-c3coc(C#N)c3)cc21 [Example 72, 4-(3,3-Dimethyl-2-oxo-2,3-dihydro-1H-indol-5-yl)-furan-2-carbonitrile]"
3,231.2 to 232.7 °C,"CC1(C)C(=O)Nc2ccc(-c3cc(F)cc([N+](=O)[O-])c3)cc21 [Example 71, 5-(3-Fluoro-5-nitro-phenyl)-3,3-dimethyl-1,3-dihydro-indol-2-one]"
4,200.2 to 202 °C,"CC1(C)C(=O)Nc2ccc(-c3cccc(C#N)c3)cc21 [Example 67, 3-(3,3-Dimethyl-2-oxo-2,3-dihydro-1H-indol-5-yl)-benzonitrile]"
5,192.3 to 193 °C,"Cc1cc(C#N)sc1-c1ccc2c(c1)C(C)(C)C(=O)N2 [Example 69, 5(3,3-Dimethyl-2-oxo-2,3dihydro-1H-indol-5-yl)-4methyl thiophene-2-carbonitrile]"
6,168.4 to 170.2 °C,"CC(C)(C)OC(=O)n1cccc1-c1ccc2c(c1)C(C)(C)C(=O)N2 [Example 84, 2-(3,3-Dimethyl-2-oxo-2,3-dihydro-1H-indol-5yl)-pyrrole-1-carboxylic acid tert-butyl ester]"
7,223 to 225 °C,"CC1(C)C(=O)Nc2ccc(-c3ccc([N+](=O)[O-])s3)cc21 [Example 83, 3,3-Dimethyl-5-(5-nitro-thiophene-2-yl)-1,3-dihydro-indol-2-one]"
8,293.9 to 294.2 °C (dec.),"CC1(C)C(=O)Nc2ccc(C3([N+](=O)[O-])C=CC=N3)cc21 (stereo not drawn) [Example 85, 2-(3,3-Dimethyl-2-oxo-2,3-dihydro-1H-indol-5-yl)-2-nitro-pyrrole]"
9,190 to 191 °C,N#Cc1cccc(-c2ccc3c(c2)C2(CCCCC2)C(=O)N3)c1 [Example 47]
10,217 to 219 °C,"N#Cc1cccc(-c2ccc3c(c2)C2(CCCC2)C(=O)N3)c1 [Example 77, 5′-(3-Cyanophenyl)-spiro[cyclopentane-1,3′-[3H]indol]-2′(1′H)-one]"
11,241 to 243 °C,"N#Cc1cc(F)cc(-c2cc(N)c3c(c2)C2(CCCCC2)C(=O)N3)c1 [Example 53, 3-(7′-Amino-1′,2′-dihydro-2′-oxospiro[cyclohexane-1,3′-[3H]indol]-5′-yl)-5-fluoro-benzonitrile]"
12,211 to 213 °C,"O=C1Nc2ccc(-c3cccc4[nH]ccc34)cc2C12CCCCC2 [Example 46, 5′-(1H-Indol-4-yl)spiro[cyclohexane-1,3′-[3H]indol]-2′(1′H)-one]"
13,256 to 258 °C,"Cc1c(-c2ccc3c(c2)C2(CCCCC2)C(=O)N3)sc2ccc(Cl)cc12 [Example 58, 5′-(5-Chloro-3-methylbenzo[b]thien-2-yl)spiro[cyclo-hexane-1,3′-[3H]indol]-2′(1′H)-one]"
14,217 °C,"N#Cc1cc(F)cc(-c2cc(Br)c3c(c2)C2(CCCCC2)C(=O)N3)c1 [Example 51, 3-(7′-Bromo-1′,2′-dihydro-2′-oxospiro[cyclohexane-1,3′-[3H]indol]-5′-yl)-5-fluoro-benzonitrile]"
15,270 to 272 °C,"CC1(C)C(=O)Nc2ccc(-c3cccc(C#N)c3F)cc21 [Example 87, 3(3,3-Dimethyl-2-oxo-2,3-dihydro-1H-indol-5-yl)-2-fluoro-benzonitrile]"
16,255 to 256 °C,"CC1(C)C(=O)Nc2ccc(-c3ccc(C#N)s3)cc21 [Example 86, 5-(3,3-Dimethyl-2-oxo-2,3-dihydro-1H-indol-5-yl)-thiophene2-carbonitrile]"
17,202 to 204 °C,"O=C1Nc2ccc(-c3ccc(F)c(Cl)c3)cc2C12CCCC2 [Example 76, 5′-(3-Chloro-4fluorophenyl)-spiro[cyclopentane-1,3′-[3H]indol]-2′(1′H)-one]"
18,258 to 260 °C,"N#Cc1ccc(-c2ccc3c(c2)C2(CCCCC2)C(=O)N3)cc1F [Example 63, 5′-(4-Cyano-3-fluorophenyl)-spiro[cyclohexane-1,3′-[3H]indol]-2′(1′H)-one]"
19,205.9 to 206.8 °C,"CC1(C)C(=O)Nc2ccc(-c3cc(F)cc(Cl)c3)cc21 [Example 70, 5-(3-Chloro-5-fluoro-phenyl)-3,3-dimethyl-1,3-dihydro-indol-2-one]"
20,196 °C,"N#Cc1cc(F)cc(-c2cc([N+](=O)[O-])c3c(c2)C2(CCCCC2)C(=O)N3)c1 [Example 52, 3-(7′-Nitro-1′,2′-dihydro-2′-oxospiro[cyclohexane-1,3′-[3H]indol]-5′-yl)-5-fluoro-benzonitrile]"

# System: rat uterine decidualization
# Test: Rat decidualization assay
# Assay type: in vivo
# Conditions: @ 3 mg/kg; rat decidualization, antiprogestational mode
# Experimental: 1. Rat Decidualization Assay
# The animals are treated once daily for seven days.
# Uteri are removed and trimmed of fat.
# Decidual response: [(D-C)/C]×100%
row,Decid. IC50 mg/kg,SMILES
1,50% @ 3,Cc1cc(C#N)sc1-c1ccc2c(c1)C1(CCCC1)C(=O)N2 [Example 73]

# Same assay, conditions: @ 3 mg/kg; rat decidualization, antiprogestational mode; read-out: Decid. IC50 mg/kg
row,SMILES,inhibition in vivo at 3 mg/kg
1,"N#Cc1cc(F)cc(-c2ccc3c(c2)C2(CCCC2)C(=O)N3)c1 [Example 80, 5′-(3-Cyano-5-fluorophenyl)-spiro[cyclopentane-1,3′-[3H]indol]-2′(1′H)-one]",70%
2,"N#Cc1cccc(-c2ccc3c(c2)C2(CCCC2)C(=O)N3)c1 [Example 77, 5′-(3-Cyanophenyl)-spiro[cyclopentane-1,3′-[3H]indol]-2′(1′H)-one]",60%

# Same assay, conditions: @ 10 mg/kg; rat decidualization, antiprogestational mode; read-out: Decid. IC50 mg/kg
row,SMILES,inhibition in vivo at 10 mg/kg
1,N#Cc1cccc(-c2ccc3c(c2)C2(CCCCC2)C(=O)N3)c1 [Example 47],50%

# Same assay, conditions: p.o.; half-maximal decrease in EC50 progesterone induced decidual response, rats
row,IC50,SMILES
1,0.21 mg/kg and 0.14 mg/kg,CC#C[C@]1(O)CC[C@H]2[C@@H]3CCC4=CC(=O)CCC4=C3[C@@H](c3ccc(N(C)C)cc3)C[C@@]21C [RU486]

# Same assay, conditions: s.c.; half-maximal increase in decidual response (uterine wet weight), ovariectomized rats; individual studies
row,SMILES,EC50
1,C#C[C@]1(O)CC[C@H]2[C@@H]3CCC4=CC(=O)CC[C@@H]4[C@H]3C(=C)C[C@@]21CC [3-Ketodesogestrel],0.10 mg/kg and 0.06 mg/kg and 0.11 mg/kg
2,C#C[C@]1(O)CC[C@H]2[C@@H]3CCC4=CC(=O)CC[C@@H]4[C@H]3CC[C@@]21CC [Levonorgestrel],0.08 mg/kg and 0.12 mg/kg and 0.09 mg/kg (2×)
